Tests used:
[1] = target: T1, PDPK1 (Homo sapiens, UniProt O15530); test: MALDI MS of intact PDPK1 incubated with compound; type: binding; parameters: purchased Millipore 14-452; details: for mass shift of PDPK1: 10-fold excess of compound to protein; for Number of Modifications on Whole Protein: PDPK1 whole protein, MS
T1 sequence (O15530 1-556): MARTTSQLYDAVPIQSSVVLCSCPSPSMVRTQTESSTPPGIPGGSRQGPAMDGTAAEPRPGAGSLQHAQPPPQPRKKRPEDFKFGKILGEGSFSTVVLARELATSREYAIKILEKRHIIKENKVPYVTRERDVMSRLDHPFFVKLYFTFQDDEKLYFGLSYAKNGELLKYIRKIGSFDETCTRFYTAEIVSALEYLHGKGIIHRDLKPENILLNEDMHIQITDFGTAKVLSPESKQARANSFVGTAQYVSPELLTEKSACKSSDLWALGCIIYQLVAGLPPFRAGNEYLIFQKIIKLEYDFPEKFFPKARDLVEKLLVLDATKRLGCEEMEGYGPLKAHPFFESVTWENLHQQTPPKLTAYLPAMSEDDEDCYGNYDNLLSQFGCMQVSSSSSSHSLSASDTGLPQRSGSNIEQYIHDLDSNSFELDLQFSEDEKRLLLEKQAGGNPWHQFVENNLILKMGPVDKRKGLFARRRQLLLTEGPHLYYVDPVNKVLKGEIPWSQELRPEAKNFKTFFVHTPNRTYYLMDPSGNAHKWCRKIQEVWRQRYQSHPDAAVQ
Protocol: (§1) Intact PDPK1 was incubated for 3 hr at a 10-fold excess of compound XI-27 to protein. 3 μL aliquots of the samples were diluted with 10 μL of 0.1% TFA prior to micro C4 Ziptipping directly onto the MALDI target plate using sinapinic acid as the desorption matrix (10 mg/mL in 0.1% TFA:Acetonitrile 50:50).
as §1, with “XI-21” for “XI-27”
For example, Table 7 lists non-limiting examples of compounds that modify PDPK1 whole protein, the number of modifications per protein and the lysines modified within the protein. […] Also, the lysine modified in PDPK-1 by XI-27, XI-26, XI-22, and XI-21 are not the same for each compound. Without wishing to be bound to any particular theory, the position of the warhead, as presented by the scaffold and tether to the lysines in the binding site, effects different results on the modification of the different lysines in the binding site of PDPK-1.

[2] = target: T1, PDPK1; test: PDK1-OMNIA kinase assay (ST28-Sox peptide); type: biochemical; parameters: purchased Invitrogen, BPS or SignalChem P3001 (Invitrogen), 40080 (BPS), P14-10H (SignalChem); details: PDPK1 enzyme pre-incubated 30 min at 25° C. with compound; [ATP]=5 μM; ST28-Sox peptide substrate; read-out: Inhibition/Modification Designation (IC50, PDK1-OMNIA)
Protocol: Briefly, a 10× stock of PDPK1 enzyme from Invitrogen (P3001) or BPS (40080) or SignalChem (P14-10H), 1.13×ATP (AS001A) and ST28-Sox peptide substrate (KNZ1281C) were prepared in 1× kinase reaction buffer consisting of 20 mM Tris, pH 7.5, 5 mM MgCl2, 1 mM EGTA, 5 mM β-glycerophosphate, 5% glycerol (10× stock, KB002A) and 0.2 mM DTT (DS001A). 5 μL of enzyme were pre-incubated in a Corning (#3574) 384-well, white, non-binding surface microtiter plate (Corning, N.Y.) for 30 min at 25° C. with a 0.5 μL volume of 50% DMSO and serially diluted compounds prepared in 50% DMSO. Kinase reactions were started with the addition of 45 […] of the ST28-Sox peptide substrate and monitored every 71 seconds for 30-60 minutes at λex360/λem485 in a Synergy4 plate reader from BioTek (Winooski, Vt.). At the conclusion of each assay, progress curves from each well were examined for linear reaction kinetics and fit statistics (R^2, 95% confidence interval, absolute sum of squares). Post-lag velocity (+10 minutes to 20+ minutes) from each reaction was estimated from the slope of a plot of relative fluorescence units vs time (minutes) and normalized to the no enzyme and no inhibitor control groups for % Inhibition. The resulting inhibition values were then plotted against inhibitor concentration to estimate IC50 from log [Inhibitor] vs Response, Variable Slope model in GraphPad Prism from GraphPad Software (San Diego, Calif.).
[Reagent] used in provisional protocol(s): Invitrogen—[PDPK1]=5-10 nM, [ATP]=5 μM and [ST28-Sox]=5 μM or 10 μM (ATP KMapp=4-6 μM); BPS—[PDPK1]=10-15 nM, [ATP]=5 μM and [ST28-Sox]=10 μM (ATP KMapp=3-5 μM); SignalChem—[PDPK1]=5-10 nM, [ATP]=5 μM and [ST28-Sox]=5 μM or 10 μM (ATP KMapp ND)

[3] = target: T2, HCV NS3/4A 1b protease enzyme (wild type) (Hepatitis C virus genotype 1b, UniProt P26663); test: HCV protease FRET assay (IC50_APP), wild type NS3/4A 1b; type: biochemical
T2 construct: 10× stocks of NS3/4A protease enzyme from Bioenza (Mountain View, Calif.); purchased Bioenza
How it was run: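 Wild-type NS3/4A 1b protease with serially diluted compounds (from 50% DMSO stocks); reaction started at once with FRET substrate and followed 60-90 min at ex485/em520. Initial velocities (0 to 15+ min) normalised to no-inhibitor and no-enzyme controls; apparent IC50 from variable-slope log[inhibitor]-response fit.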

[4] = target: T3, HCV NS3 protease WT 1b (Hepatitis C virus genotype 1b, UniProt P26663); test: MALDI MS of intact HCV protease 1b WT incubated with compound; type: binding; details: WT 1b, 1 HR
T3 construct: The single-chain proteolytic domain (NS4A21-32-GSGS-NS33-631) was cloned into pET-14b; His tag (own knowledge of vector pET-14b); made in house; host or cells: Escherichia coli BL21
Protocol: Intact HCV (protease) 1bWT was incubated for 1 hr at a 10× fold excess of XVI-26 to protein. 3 ul aliquots of the samples were diluted with 10 ul of 0.1% TFA prior to micro C4 ZipTipping directly onto the MALDI target using Sinapinic acid as the desorption matrix (10 mg/mL in 0.1% TFA:Acetonitrile 50:50). […] Due to likely protein misfolding during protein purification, a small portion of the misfolded protein was not modified.
In order to determine whether the modification of the protein occurred at lysine, the pH from the above experiment was increased from 7.4 to 10.0. Because the compound lysine adduct would be an amide any increase in pH would have minimal effect on the modified protein. If however, the modification occurred at cysteine the resultant thioester bond would be unstable and the compound would hydrolyze off the protein.
Intact HCV (protease) 1bWT, C159S, and C159S/K136A were incubated for 1 hr at a 10× fold excess of XVI-26 to protein. 3 μl aliquots of the samples were diluted with 10 μl of 0.1% TFA prior to micro C4 ZipTipping directly onto the MALDI target using Sinapinic acid as the desorption matrix (10 mg/mL in 0.1% TFA:Acetonitrile 50:50).
Intact HCV (protease) WT1b was incubated for 1 hr at a 10× fold excess of XVI-1 (mw=782.87) to protein. 3 μl aliquots of the samples were diluted with 10 μl of 0.1% TFA prior to micro C4 ZipTipping directly onto the MALDI target using Sinapinic acid as the desorption matrix (10 mg/mL in 0.1% TFA:Acetonitrile 50:50). […] Due to some protein misfolding during the purification of the protein, the unfolded portion of the protein can not react with XVI-1.

Structure (SMILES)	Number of Modifications on Whole Protein [1]	IC50 [2]	IC50 [3]	MS_HCVNS3_INTACT_NS3 WT 1b 1 HR [4]	further results
CC(C)(C(N)=O)C(=O)NCCCNc1nc(Nc2cccc(NC(=O)C3CCC(=O)S3)c2)ncc1Br (stereo not shown) [XI-21]	2	< 10 nM	–	–	mass shift of PDPK1 as percent ([1]; 3 hr, 10-fold excess): 175%; modification of PDPK1 ([1]; 3 hr, 10-fold excess): complete multiple modification; mass shift of PDPK1 ([1]; 3 hr): 1,009 Da
C=CC(=O)Nc1ccc(Nc2ncc(Br)c(NCCCNC(=O)C(C)(C)C(N)=O)n2)cc1 [XI-39]	1	10 to 100 nM	–	–	–
CC(C)(C(N)=O)C(=O)NCCCNc1nc(Nc2cccc(NC(=O)CNC(=O)C3CSC(=O)C3)c2)ncc1Br (stereo not shown) [XI-26]	1	10 to 100 nM	–	–	–
CC(C)(C(N)=O)C(=O)NCCCNc1nc(Nc2cccc(NC(=O)CNC(=O)C3CCC(=O)S3)c2)ncc1Br (stereo not shown) [XI-22]	2	< 10 nM	–	–	–
C=CC(=O)Nc1cccc(Nc2ncc(Br)c(NCCCNC(=O)C(C)(C)C(N)=O)n2)c1 [XI-53]	1	–	–	–	–
C=C[C@@H]1C[C@]1(NC(=O)[C@@H]1CC(OC(=O)N2Cc3cccc(F)c3C2)CN1C(=O)[C@H](COC(=O)N[C@@H]1C(=O)O[C@@H]1C)NC(=O)OC(C)(C)C)C(=O)NS(=O)(=O)C1CC1 (stereo partly drawn) [XVI-25, (5S)-1-((S)-2-(tert-butoxycarbonylamino)-3-((2R,3S)-2-methyl-4-oxooxetan-3-ylcarbamoyloxy)propanoyl)-5-((1R,2S)-1-(cyclopropylsulfonylcarbamoyl)-2-vinylcyclopropylcarbamoyl)pyrrolidin-3-yl 4-fluoroisoindoline-2-carboxylate]	–	–	< 1 nM	K (≤30% modification)	–
C=C[C@@H]1C[C@]1(NC(=O)[C@@H]1C[C@@H](OC(=O)N2Cc3cccc(F)c3C2)CN1C(=O)[C@H](CNC(=O)c1cc(C(C)=O)oc1C)NC(=O)OC(C)(C)C)C(=O)NS(=O)(=O)C1CC1 [XVI-4]	–	–	100 to 1000 nM	K (≤30% modification)	–
C=C[C@@H]1C[C@]1(NC(=O)[C@@H]1CC(Oc2nccc3cc(OC)ccc23)CN1C(=O)[C@H](CC(=O)N1C[C@H]2C[C@@H]1C(=O)O2)NC(=O)OC(C)(C)C)C(=O)NS(=O)(=O)C1CC1 (stereo partly shown) [XVI-6]	–	–	1 to 10 nM	H (>50% and ≤70% modification)	–
C=C[C@@H]1C[C@]1(NC(=O)[C@@H]1CC(OC(=O)N2Cc3cccc(F)c3C2)CN1C(=O)[C@H](CC(=O)N1C[C@@H]2C[C@H]1C(=O)O2)NC(=O)OC(C)(C)C)C(=O)NS(=O)(=O)C1CC1 (stereo partly drawn) [XVI-15, (5S)-1-((S)-2-(tert-butoxycarbonylamino)-4-oxo-4-((1S,4S)-3-oxo-2-oxa-5-azabicyclo[2.2.1]heptan-5-yl)butanoyl)-5-((1R,2S)-1-(cyclopropylsulfonylcarbamoyl)-2-vinylcyclopropylcarbamoyl)pyrrolidin-3-yl 4-fluoroisoindoline-2-carboxylate]	–	–	< 1 nM	H (>50% and ≤70% modification)	–
C=C[C@@H]1C[C@]1(NC(=O)[C@@H]1CC(Oc2nccc3cc(OC)ccc23)CN1C(=O)[C@H](CC(=O)N1C[C@@H]2C[C@H]1C(=O)O2)NC(=O)OC(C)(C)C)C(=O)NS(=O)(=O)C1CC1 (stereo partly shown) [XVI-7]	–	–	1 to 10 nM	H (>50% and ≤70% modification)	–
C=C[C@@H]1C[C@]1(NC(=O)[C@@H]1CC(Oc2nccc3cc(OC)ccc23)CN1C(=O)[C@H](CCC(=O)N1C[C@@H]2C[C@H]1C(=O)O2)NC(=O)OC(C)(C)C)C(=O)NS(=O)(=O)C1CC1 (stereo partly drawn) [XVI-9, tert-butyl(2S)-1-((2S)-2-((1R,2S)-1-(cyclopropylsulfonylcarbamoyl)-2-vinylcyclopropylcarbamoyl)-4-(6-methoxyisoquinolin-1-yloxy)pyrrolidin-1-yl)-1,5-dioxo-5-((1S,4S)-3-oxo-2-oxa-5-azabicyclo[2.2.1]heptan-5-yl)pentan-2-ylcarbamate]	–	–	< 1 nM	H (>50% and ≤70% modification)	–
CC(C)(C(N)=O)C(=O)NCCCNc1nc(Nc2cccc(NC(=O)C3CSC(=O)C3)c2)ncc1Br (stereo not shown) [XI-27]	1	< 10 nM	–	–	modification of PDPK1 ([1]; 3 hr, 10-fold excess): complete modification; mass shift of PDPK1 ([1]; 3 hr): 568 Da

— patent US11542492B2 (Celgene CAR LLC, priority 2009, dated 2023)
